ChEMBL document CHEMBL4715789, “Identification of a Potential Antimalarial Drug Candidate from a Series of 2-Aminopyrazines by Optimization of Aqueous Solubility and Potency across the Parasite Life Cycle” (J Med Chem, 2016)
Values after ≈ are worked out from the molar mass of the structure shown.

What was measured:
[1] = Metabolic stability in human liver microsomes assessed as compound remaining at 0.1 uM measured after 30 mins in presence of cofactor NADPH by LC-MS/MS analysis; type: ADME, Microsome; conditions: read-out: Stabilty
Plasmodium falciparum [2] = assay: microbe, parasite or virus in culture; conditions: K1, Erythrocyte
Description: Antiplasmodial activity against multidrug-resistant Plasmodium falciparum K1 infected in erythrocytes assessed as reduction in [3H]hypoxanthine incorporation preincubated for 48 hrs followed by [3H]hypoxanthine addition and measured after 24 hrs by liquid scintillation counting method

[3] = Half-life in Sprague-dawley rat at 3 mg/kg, iv by LC-MS/MS analysis; type: ADME, organism-based; conditions: in vivo
[4] = molecular target: Voltage-gated inwardly rectifying potassium channel KCNH2 (Homo sapiens, UniProt Q12809); assay: Inhibition of human ERG by IonWorks patch clamp electrophysiology method
Sequence of Voltage-gated inwardly rectifying potassium channel KCNH2 (Q12809 whole entry): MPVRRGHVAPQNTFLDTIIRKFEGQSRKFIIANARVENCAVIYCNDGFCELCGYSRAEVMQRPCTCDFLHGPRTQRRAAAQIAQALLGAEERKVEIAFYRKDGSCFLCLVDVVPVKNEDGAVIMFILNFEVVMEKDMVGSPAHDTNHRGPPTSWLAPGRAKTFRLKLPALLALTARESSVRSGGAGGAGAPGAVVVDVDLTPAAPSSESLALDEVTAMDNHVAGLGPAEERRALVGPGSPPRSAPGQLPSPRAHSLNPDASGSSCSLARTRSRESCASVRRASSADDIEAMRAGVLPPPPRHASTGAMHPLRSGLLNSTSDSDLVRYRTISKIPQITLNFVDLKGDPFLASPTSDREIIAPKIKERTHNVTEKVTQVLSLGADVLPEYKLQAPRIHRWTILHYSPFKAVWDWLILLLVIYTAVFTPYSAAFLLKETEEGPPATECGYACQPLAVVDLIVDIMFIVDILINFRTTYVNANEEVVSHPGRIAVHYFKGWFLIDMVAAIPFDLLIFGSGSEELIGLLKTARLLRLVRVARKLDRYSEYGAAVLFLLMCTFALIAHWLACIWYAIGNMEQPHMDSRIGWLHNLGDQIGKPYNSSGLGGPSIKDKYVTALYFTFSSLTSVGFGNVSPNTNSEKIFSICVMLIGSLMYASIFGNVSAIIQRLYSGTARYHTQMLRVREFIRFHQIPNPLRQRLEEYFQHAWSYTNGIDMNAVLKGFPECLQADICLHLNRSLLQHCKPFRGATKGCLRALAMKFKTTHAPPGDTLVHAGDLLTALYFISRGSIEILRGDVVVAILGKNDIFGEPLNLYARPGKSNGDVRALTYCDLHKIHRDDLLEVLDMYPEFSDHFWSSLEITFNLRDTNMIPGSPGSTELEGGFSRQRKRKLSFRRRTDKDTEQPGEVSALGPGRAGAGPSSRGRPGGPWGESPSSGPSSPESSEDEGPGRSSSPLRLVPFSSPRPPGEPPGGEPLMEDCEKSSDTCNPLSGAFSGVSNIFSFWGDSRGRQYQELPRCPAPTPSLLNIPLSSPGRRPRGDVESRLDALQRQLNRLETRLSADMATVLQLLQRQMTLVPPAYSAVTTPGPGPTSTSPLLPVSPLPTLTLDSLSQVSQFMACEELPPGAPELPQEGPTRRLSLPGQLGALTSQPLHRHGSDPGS

Plasmodium falciparum [5] = assay: Antiplasmodial activity against early stage (II/III) Plasmodium falciparum NF54 gametocytes incubated for 48 hrs by luciferase reporter gene assay; type: functional, organism-based; conditions: NF54, 48 h
[6] = Volume of distribution in Sprague-dawley rat at 3 mg/kg, iv by LC-MS/MS analysis; type: ADME, organism-based; conditions: in vivo
[7] = Clearance in Sprague-dawley rat at 3 mg/kg, iv by LC-MS/MS analysis; type: ADME, organism-based; conditions: in vivo
Plasmodium falciparum [8] = assay: microbe, parasite or virus in culture; conditions: NF54, Erythrocyte
Description: Antiplasmodial activity against multidrug-sensitive Plasmodium falciparum NF54 infected in human erythrocytes assessed as reduction in [3H]hypoxanthine incorporation preincubated for 48 hrs followed by [3H]hypoxanthine addition and measured after 24 hrs by liquid scintillation counting method

Plasmodium berghei [9] = assay: Antiplasmodial activity against Plasmodium berghei ANKA infected in NMRI mouse model assessed as mean survival days at 10 mg/kg, po qd for 4 consecutive day; type: functional; conditions: time 4 day
Plasmodium berghei [10] = assay: Antiplasmodial activity against Plasmodium berghei ANKA infected in NMRI mouse assessed as reduction in parasitemia at 10 mg/kg, po qd for 4 consecutive days measured at day 7 post infection by flow cytometry analysis; type: functional; design: scale not given: the % may be the effect or the level left; conditions: time 4 day
Plasmodium berghei [11] = assay: Antiplasmodial activity against Plasmodium berghei ANKA infected in NMRI mouse model assessed as mean survival days at 3 mg/kg, po qd for 4 consecutive day; type: functional; conditions: time 4 day
[12] = Selectivity index, ratio of IC50 for cytotoxicity against CHO cells by MTT assay to IC50 for antiplasmodial activity against multidrug-sensitive Plasmodium falciparum NF54 infected in human erythrocytes; type: toxicity, cell-based; conditions: Chinese hamster, read-out: Ratio IC50
Plasmodium falciparum [13] = assay: Antiplasmodial activity against Plasmodium falciparum 3D70087/N9 infected in NOD-SCID IL2Rgamma null mouse assessed as reduction in parasitemia administered orally on day 3 to 6 post-infection and measured day 7 post infection by TER-119-PE and […] dye based flow cytometry; type: functional; conditions: 3D70087/N9, po, 120 h, time 5 day
[14] = Metabolic stability in rat liver microsomes assessed as compound remaining at 0.1 uM measured after 30 mins in presence of cofactor NADPH by LC-MS/MS analysis; type: ADME, Microsome; conditions: read-out: Stabilty
[15] = Half-life in Sprague-dawley rat at 10 mg/kg, po by LC-MS/MS analysis; type: ADME, organism-based; conditions: in vivo
Plasmodium berghei [16] = assay: Antiplasmodial activity against luciferase expressing Plasmodium berghei sporozoites infected in human HepG2 cells preincubated with compound for 18 hrs followed by plasmodium infection measured after 48 hrs by bioluminescence assay; type: functional, organism-based
hERG (KCNH2) = assay: Selectivity ratio of IC50 for inhibition of human ERG by IonWorks patch clamp electrophysiology method to IC50 for antiplasmodial activity against multidrug-sensitive Plasmodium falciparum NF54 infected in human erythrocytes; type: toxicity, cell-based; conditions: read-out: Ratio IC50
[17] = Oral bioavailability in Sprague-dawley rat at 10 mg/kg by LC-MS/MS analysis; type: ADME, organism-based; conditions: in vivo
Plasmodium falciparum [18] = assay: Antiplasmodial activity against late stage (IV/V) Plasmodium falciparum NF54 gametocytes incubated for 48 hrs by luciferase reporter gene assay; type: functional, organism-based; conditions: NF54, 48 h
[19] = Aqueous solubility of compound in pH 2 0.01M HCl incubated for 2 hrs under shaking condition by shake-flask method based HPLC-DAD analysis; type: physicochemical
[20] = Aqueous solubility of compound in pH 6.5 PBS incubated for 2 hrs under shaking condition by shake-flask method based HPLC-DAD analysis; type: physicochemical
[21] = Metabolic stability in mouse liver microsomes assessed as compound remaining at 0.1 uM measured after 30 mins in presence of cofactor NADPH by LC-MS/MS analysis; type: ADME, Microsome; conditions: read-out: Stabilty
Plasmodium falciparum [22] = assay: Antimalarial activity against Plasmodium falciparum 3D70087/N9 infected in NOD-SCID IL2Rgamma null mouse assessed as blood AUC level require to show 90% reduction in parasitemia administered orally on day 3 to 6 post-infection and measured day 7 post infection; type: functional, organism-based; conditions: time 5.0 day
Plasmodium berghei [23] = assay: Antiplasmodial activity against Plasmodium berghei ANKA infected in NMRI mouse assessed as reduction in parasitemia at 3 mg/kg, po qd for 4 consecutive days measured at day 7 post infection by flow cytometry analysis; type: functional; design: scale not given: the % may be the effect or the level left; conditions: time 4 day
Plasmodium berghei [24] = assay: Antiplasmodial activity against Plasmodium berghei ANKA infected in NMRI mouse model assessed as reduction in parasitemia administered orally once a day for 4 consecutive days measured at day 7 post infection by flow cytometry analysis; type: functional; conditions: po, 96 h, time 4 day
[25] = Oral bioavailability in Sprague-dawley rat at 15 mg/kg by LC-MS/MS analysis; type: ADME, organism-based; conditions: in vivo
[26] = Apparent average plasma concentration in NMRI mouse plasma infected with Plasmodium berghei ANKA at 3 mg/kg, po qd for 4 consecutive days and measured post last dose; type: ADME, organism-based; conditions: in vivo, 96 h, time 4 day
[27] = Cmax(app) in NMRI mouse plasma infected with Plasmodium berghei ANKA at 3 mg/kg, po qd for 4 consecutive days and measured post last dose; type: ADME, organism-based; conditions: time 4 day
[28] = AUC(app) in NMRI mouse plasma infected with Plasmodium berghei ANKA at 3 mg/kg, po qd for 4 consecutive days and measured post last dose; type: ADME, organism-based; conditions: time 4 day
Plasmodium berghei [29] = assay: Antiplasmodial activity against Plasmodium berghei ANKA infected in NMRI mouse model assessed as mean survival days at 30 mg/kg, po qd for 4 consecutive days; type: functional; conditions: time 4 day
[30] = Clearance in Sprague-dawley rat at 5 mg/kg, iv by LC-MS/MS analysis; type: ADME, organism-based; conditions: in vivo
[31] = Volume of distribution in Sprague-dawley rat at 5 mg/kg, iv by LC-MS/MS analysis; type: ADME, organism-based; conditions: in vivo
[32] = Half-life in Sprague-dawley rat at 5 mg/kg, iv by LC-MS/MS analysis; type: ADME, organism-based; conditions: in vivo
[33] = Oral bioavailability in Sprague-dawley rat at 20 mg/kg by LC-MS/MS analysis; type: ADME, organism-based; conditions: in vivo
[34] = Half-life in Sprague-dawley rat at 20 mg/kg, po by LC-MS/MS analysis; type: ADME, organism-based; conditions: in vivo

Compound	remaining at 0.5 h, 0.1 µM [1] [%]	IC50 (Plasmodium falciparum [2]) [nM]	IC50 [4] [nM]	IC50 (Plasmodium falciparum [5]) [nM]	IC50 (Plasmodium falciparum [8]) [nM]	MSD (Plasmodium berghei [9]) [days]	Activity (Plasmodium berghei [10]) [%]	MSD (Plasmodium berghei [11]) [days]	selectivity ratio [12]	ED90 (Plasmodium falciparum [13]) [mg/kg]	remaining at 0.5 h, 0.1 µM [14] [%]	IC50 (Plasmodium berghei [16]) [nM]	selectivity ratio (hERG (KCNH2))	IC50 (Plasmodium falciparum [18]) [nM]	solubility thermodynamic at 2 h [19] [µM]	solubility thermodynamic at 2 h [20] [µM]	remaining at 0.5 h, 0.1 µM [21] [%]	AUC (Plasmodium falciparum [22]) [ng·h/mL]	Activity (Plasmodium berghei [23]) [%]	ED90 (Plasmodium berghei [24]) [mg/kg]	also measured
Nc1ncc(-c2ccc(C(=O)N3CCC(O)CC3)cc2)nc1-c1ccc(C(F)(F)F)cc1	> 90	5	> 33000	603	5.4	11	99.9	7	> 1800	0.11	> 90	4.1	> 1000	179	119 (≈ 52.7 µg/mL)	19 (≈ 8.41 µg/mL)	> 90	60			half-life [3]: 8.1 h; Vd [6]: 5.1 L/kg; clearance [7]: 7.1 mL/min/kg; half-life [15]: 5.4 h; bioavailability [17]: 25%
Nc1ncc(-c2ccc(C(=O)O)cc2)nc1-c1ccc(C(F)(F)F)cc1	> 90	32	> 33000	649	33	>30	99.9	14	> 1800	< 0.1	> 90	51	> 1000	729	< 5	95 (≈ 34.1 µg/mL)	> 90	200	99.9	0.56	bioavailability [25]: 94%; Cave [26]: 3500 nM; Cmax [27]: 5000 nM; AUC at 96 h [28]: 79.7 µM·h
O[C@@H](c1cc(C(F)(F)F)nc2c(C(F)(F)F)cccc12)[C@H]1CCCCN1 [(S,R)-MEFLOQUINE]																					MSD (Plasmodium berghei [29]): 29 days
C[C@H]1[C@H](OC(=O)CCC(=O)O)O[C@@H]2O[C@@]3(C)CC[C@H]4[C@H](C)CC[C@@H]1[C@@]24OO3 [ARTESUNATE]		3			4																MSD (Plasmodium berghei [29]): 10 days
Nc1ncc(-c2ccc(C(=O)N3CCNCC3)cc2)nc1-c1ccc(C(F)(F)F)cc1	> 90	5.2	10000	134	5.4	>30	>99.9	10	> 1800	0.25	> 90	0.92	1900	66	192 (≈ 82.1 µg/mL)	158 (≈ 67.5 µg/mL)	> 90	< 65	>99.9	1	clearance [30]: 10.3 mL/min/kg; Cave [26]: 200 nM; Vd [31]: 5.5 L/kg; half-life [32]: 7.8 h; bioavailability [33]: 98%; Cmax [27]: 400 nM; half-life [34]: 5.3 h; AUC at 96 h [28]: 5.4 µM·h
